The subject of one experiment is 233499-124-R-J3-PDC spheroids with HUVEC/MSC, viability. Kind of experiment: Anticancer human tumor 233499-124-R-J3-PDC patient-derived colon adenocarcinoma cell line growth inhibition [PI3K]. Particulars: curve of first compound; second compound 0.00316 µM. The method in brief:
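Spheroid viability read-out. Co-cultures contained the tumor line plus HUVEC and human MSCs. Each agent was paired with a PI3K inhibitor (inavolisib, alpelisib, duvelisib, copanlisib) across half-log dilutions starting at clinical Cmax, or at 10 microM when Cmax was unknown.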
In the case of `C=CC(=O)N1CCN(c2nc(=O)n(-c3c(C)ccnc3C(C)C)c3nc(-c4c(O)cccc4F)c(F)cc23)C(C)C1` (stereo unspecified) + COc1c(OCCCN2CCOCC2)ccc2c3n(c(=NC(=O)c4cnc(N)nc4)nc12)CCN3, the IC50 was > 10 µM.

On to `CC(Cn1ccc(-c2ccc(C#N)c(Cl)c2)n1)NC(=O)c1cc(C(C)O)[nH]n1` (stereo unspecified) + COc1c(OCCCN2CCOCC2)ccc2c3n(c(=NC(=O)c4cnc(N)nc4)nc12)CCN3, for which the IC50 is > 10 µM.

Turning to `Cn1nccc1Nc1nccc(-c2ccn(C(CO)c3ccc(Cl)c(F)c3)c(=O)c2)n1` (stereo unspecified) + COc1c(OCCCN2CCOCC2)ccc2c3n(c(=NC(=O)c4cnc(N)nc4)nc12)CCN3, the IC50 was > 10 µM.

Staying with this experiment, now noted: curve of first compound; second compound 0.01 µM.
Consider `C=CC(=O)N1CCN(c2nc(=O)n(-c3c(C)ccnc3C(C)C)c3nc(-c4c(O)cccc4F)c(F)cc23)C(C)C1` (stereo unspecified) + COc1c(OCCCN2CCOCC2)ccc2c3n(c(=NC(=O)c4cnc(N)nc4)nc12)CCN3, for which the IC50 is > 10 µM.

Turning to `CC(Cn1ccc(-c2ccc(C#N)c(Cl)c2)n1)NC(=O)c1cc(C(C)O)[nH]n1` (stereo unspecified) + COc1c(OCCCN2CCOCC2)ccc2c3n(c(=NC(=O)c4cnc(N)nc4)nc12)CCN3, the IC50 is > 10 µM.

As for `Cn1nccc1Nc1nccc(-c2ccn(C(CO)c3ccc(Cl)c(F)c3)c(=O)c2)n1` (stereo unspecified) + COc1c(OCCCN2CCOCC2)ccc2c3n(c(=NC(=O)c4cnc(N)nc4)nc12)CCN3, the IC50 was > 10 µM.

The experiment is the same for the next values; noted with them: curve of first compound; second compound 0.0316 µM.
Consider `C=CC(=O)N1CCN(c2nc(=O)n(-c3c(C)ccnc3C(C)C)c3nc(-c4c(O)cccc4F)c(F)cc23)C(C)C1` (stereo unspecified) + COc1c(OCCCN2CCOCC2)ccc2c3n(c(=NC(=O)c4cnc(N)nc4)nc12)CCN3, for which the IC50 is > 10 µM.

On to `CC(Cn1ccc(-c2ccc(C#N)c(Cl)c2)n1)NC(=O)c1cc(C(C)O)[nH]n1` (stereo unspecified) + COc1c(OCCCN2CCOCC2)ccc2c3n(c(=NC(=O)c4cnc(N)nc4)nc12)CCN3, for which the IC50 was > 10 µM.

On to `Cn1nccc1Nc1nccc(-c2ccn(C(CO)c3ccc(Cl)c(F)c3)c(=O)c2)n1` (stereo unspecified) + COc1c(OCCCN2CCOCC2)ccc2c3n(c(=NC(=O)c4cnc(N)nc4)nc12)CCN3, for which the IC50 was > 10 µM.

Staying with this experiment, now noted: curve of first compound; second compound 0.1 µM.
For the molecule `C=CC(=O)N1CCN(c2nc(=O)n(-c3c(C)ccnc3C(C)C)c3nc(-c4c(O)cccc4F)c(F)cc23)C(C)C1` (stereo unspecified) + COc1c(OCCCN2CCOCC2)ccc2c3n(c(=NC(=O)c4cnc(N)nc4)nc12)CCN3, the IC50 was > 10 µM.

In the case of `CC(Cn1ccc(-c2ccc(C#N)c(Cl)c2)n1)NC(=O)c1cc(C(C)O)[nH]n1` (stereo unspecified) + COc1c(OCCCN2CCOCC2)ccc2c3n(c(=NC(=O)c4cnc(N)nc4)nc12)CCN3, the IC50 stood at 5.04 µM.

As for `Cn1nccc1Nc1nccc(-c2ccn(C(CO)c3ccc(Cl)c(F)c3)c(=O)c2)n1` (stereo unspecified) + COc1c(OCCCN2CCOCC2)ccc2c3n(c(=NC(=O)c4cnc(N)nc4)nc12)CCN3, the IC50 was 0.791 µM.

Staying with this experiment, now noted: curve of first compound; second compound 0.316 µM.
As for `C=CC(=O)N1CCN(c2nc(=O)n(-c3c(C)ccnc3C(C)C)c3nc(-c4c(O)cccc4F)c(F)cc23)C(C)C1` (stereo unspecified) + COc1c(OCCCN2CCOCC2)ccc2c3n(c(=NC(=O)c4cnc(N)nc4)nc12)CCN3, the IC50 is < 0.0316 µM.

Turning to `CC(Cn1ccc(-c2ccc(C#N)c(Cl)c2)n1)NC(=O)c1cc(C(C)O)[nH]n1` (stereo unspecified) + COc1c(OCCCN2CCOCC2)ccc2c3n(c(=NC(=O)c4cnc(N)nc4)nc12)CCN3, the IC50 was < 0.0316 µM.

As to `Cn1nccc1Nc1nccc(-c2ccn(C(CO)c3ccc(Cl)c(F)c3)c(=O)c2)n1` (stereo unspecified) + COc1c(OCCCN2CCOCC2)ccc2c3n(c(=NC(=O)c4cnc(N)nc4)nc12)CCN3, the IC50 was < 0.0316 µM.

The same experiment, now with this note: curve of first compound; second compound 1 µM.
Consider `C=CC(=O)N1CCN(c2nc(=O)n(-c3c(C)ccnc3C(C)C)c3nc(-c4c(O)cccc4F)c(F)cc23)C(C)C1` (stereo unspecified) + COc1c(OCCCN2CCOCC2)ccc2c3n(c(=NC(=O)c4cnc(N)nc4)nc12)CCN3, for which the IC50 is < 0.0316 µM.

Take `CC(Cn1ccc(-c2ccc(C#N)c(Cl)c2)n1)NC(=O)c1cc(C(C)O)[nH]n1` (stereo unspecified) + COc1c(OCCCN2CCOCC2)ccc2c3n(c(=NC(=O)c4cnc(N)nc4)nc12)CCN3: the IC50 is < 0.0316 µM.

Take `Cn1nccc1Nc1nccc(-c2ccn(C(CO)c3ccc(Cl)c(F)c3)c(=O)c2)n1` (stereo unspecified) + COc1c(OCCCN2CCOCC2)ccc2c3n(c(=NC(=O)c4cnc(N)nc4)nc12)CCN3: the IC50 is < 0.0316 µM.

Staying with this experiment, now noted: second compound 0.00316 µM; first compound 0.0316 µM; stronger effect = lower value.
As for `C=CC(=O)N1CCN(c2nc(=O)n(-c3c(C)ccnc3C(C)C)c3nc(-c4c(O)cccc4F)c(F)cc23)C(C)C1` (stereo unspecified) + COc1c(OCCCN2CCOCC2)ccc2c3n(c(=NC(=O)c4cnc(N)nc4)nc12)CCN3, the viability, T/C was 98.1%.

As to `CC(Cn1ccc(-c2ccc(C#N)c(Cl)c2)n1)NC(=O)c1cc(C(C)O)[nH]n1` (stereo unspecified) + COc1c(OCCCN2CCOCC2)ccc2c3n(c(=NC(=O)c4cnc(N)nc4)nc12)CCN3, the viability, T/C is 92.3%.

For the molecule `Cn1nccc1Nc1nccc(-c2ccn(C(CO)c3ccc(Cl)c(F)c3)c(=O)c2)n1` (stereo unspecified) + COc1c(OCCCN2CCOCC2)ccc2c3n(c(=NC(=O)c4cnc(N)nc4)nc12)CCN3, the viability, T/C is 90.5%.

Still in this experiment, the particulars now being: second compound 0.00316 µM; first compound 0.1 µM; stronger effect = lower value.
`C=CC(=O)N1CCN(c2nc(=O)n(-c3c(C)ccnc3C(C)C)c3nc(-c4c(O)cccc4F)c(F)cc23)C(C)C1` (stereo unspecified) + COc1c(OCCCN2CCOCC2)ccc2c3n(c(=NC(=O)c4cnc(N)nc4)nc12)CCN3: the viability, T/C was 103%.

Turning to `CC(Cn1ccc(-c2ccc(C#N)c(Cl)c2)n1)NC(=O)c1cc(C(C)O)[nH]n1` (stereo unspecified) + COc1c(OCCCN2CCOCC2)ccc2c3n(c(=NC(=O)c4cnc(N)nc4)nc12)CCN3, the viability, T/C is 107%.

Take `Cn1nccc1Nc1nccc(-c2ccn(C(CO)c3ccc(Cl)c(F)c3)c(=O)c2)n1` (stereo unspecified) + COc1c(OCCCN2CCOCC2)ccc2c3n(c(=NC(=O)c4cnc(N)nc4)nc12)CCN3: the viability, T/C is 86.6%.

Staying with this experiment, now noted: second compound 0.00316 µM; first compound 0.316 µM; stronger effect = lower value.
Regarding `C=CC(=O)N1CCN(c2nc(=O)n(-c3c(C)ccnc3C(C)C)c3nc(-c4c(O)cccc4F)c(F)cc23)C(C)C1` (stereo unspecified) + COc1c(OCCCN2CCOCC2)ccc2c3n(c(=NC(=O)c4cnc(N)nc4)nc12)CCN3, the viability, T/C is 87.8%.

Consider `CC(Cn1ccc(-c2ccc(C#N)c(Cl)c2)n1)NC(=O)c1cc(C(C)O)[nH]n1` (stereo unspecified) + COc1c(OCCCN2CCOCC2)ccc2c3n(c(=NC(=O)c4cnc(N)nc4)nc12)CCN3, for which the viability, T/C is 102%.

In the case of `Cn1nccc1Nc1nccc(-c2ccn(C(CO)c3ccc(Cl)c(F)c3)c(=O)c2)n1` (stereo unspecified) + COc1c(OCCCN2CCOCC2)ccc2c3n(c(=NC(=O)c4cnc(N)nc4)nc12)CCN3, the viability, T/C was 86.4%.

Still in this experiment, the particulars now being: second compound 0.00316 µM; first compound 1 µM; stronger effect = lower value.
As for `C=CC(=O)N1CCN(c2nc(=O)n(-c3c(C)ccnc3C(C)C)c3nc(-c4c(O)cccc4F)c(F)cc23)C(C)C1` (stereo unspecified) + COc1c(OCCCN2CCOCC2)ccc2c3n(c(=NC(=O)c4cnc(N)nc4)nc12)CCN3, the viability, T/C is 97.7%.

As to `CC(Cn1ccc(-c2ccc(C#N)c(Cl)c2)n1)NC(=O)c1cc(C(C)O)[nH]n1` (stereo unspecified) + COc1c(OCCCN2CCOCC2)ccc2c3n(c(=NC(=O)c4cnc(N)nc4)nc12)CCN3, the viability, T/C was 102%.

With `Cn1nccc1Nc1nccc(-c2ccn(C(CO)c3ccc(Cl)c(F)c3)c(=O)c2)n1` (stereo unspecified) + COc1c(OCCCN2CCOCC2)ccc2c3n(c(=NC(=O)c4cnc(N)nc4)nc12)CCN3, the viability, T/C is 91.4%.

Still in this experiment, the particulars now being: second compound 0.00316 µM; first compound 3.16 µM; stronger effect = lower value.
Regarding `C=CC(=O)N1CCN(c2nc(=O)n(-c3c(C)ccnc3C(C)C)c3nc(-c4c(O)cccc4F)c(F)cc23)C(C)C1` (stereo unspecified) + COc1c(OCCCN2CCOCC2)ccc2c3n(c(=NC(=O)c4cnc(N)nc4)nc12)CCN3, the viability, T/C is 88.4%.

Broadly, the IC50 is the concentration that inhibits the measured activity by half. The viability, T/C is the ratio of treated to control.

Values taken from PubChem BioAssay AID1963984 (Molecular Pharmacology Branch, DTP, NCI, 2024).
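Note: spheroids exposed to agents for seven days before readout.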
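Throughout, for viability, T/C: percent viability relative to DMSO vehicle control taken as 100%.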
